This passage reports IC50 results from patent US9682995B2, “Amino-substituted isothiazoles” (BAYER PHARMA AKTIENGESELLSCHAFT, priority 2013, dated 2017).

The test system of experiment [1] is spindle assembly checkpoint. Put plainly: SAC-Formation - Nocodazole-Induced Assay. The format is cell-based. Particulars: Homo sapiens; HeLa cells, nocodazole 0.1 μg/ml, 24 h, phosphorylated histone H3 on serine 10. Put shortly:
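HeLa cells were given nocodazole at 0.1 μg/ml final together with compounds (0.005–20 μM, 0.5% DMSO) for 24 h at 37° C. Mitotic cells were counted by phospho-histone H3 Ser10 immunostaining, with cell number from HOECHST 33342, by high-content imaging. The loss of mitotic cells was fitted with a four-parameter Hill equation.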

A further experiment deals with human kinase Mps-1 (Homo sapiens (Human), UniProt P33981). Put plainly: Mps-1 kinase assay (TR-FRET). Type of experiment: biochemical. The following applies: 10 μM ATP; read-out: Mps1 avg (IC50 [mol/l]). Put shortly: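 GST-tagged full-length human Mps-1 (~0.5 nM) preincubated 15 min with compound, then reacted 60 min at 22 °C with 10 μM ATP and 1 μM biotinylated peptide in Hepes pH 7.7 buffer. Phosphoproduct detected by TR-FRET (Eu anti-phospho-Ser/Thr, SA-XLent); 665/620 ratio normalised to no-inhibitor and no-enzyme controls.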
On the technique in general: TR-FRET usually uses a lanthanide donor and a delayed reading to cut background.

human kinase Mps-1, sequence (P33981 whole entry): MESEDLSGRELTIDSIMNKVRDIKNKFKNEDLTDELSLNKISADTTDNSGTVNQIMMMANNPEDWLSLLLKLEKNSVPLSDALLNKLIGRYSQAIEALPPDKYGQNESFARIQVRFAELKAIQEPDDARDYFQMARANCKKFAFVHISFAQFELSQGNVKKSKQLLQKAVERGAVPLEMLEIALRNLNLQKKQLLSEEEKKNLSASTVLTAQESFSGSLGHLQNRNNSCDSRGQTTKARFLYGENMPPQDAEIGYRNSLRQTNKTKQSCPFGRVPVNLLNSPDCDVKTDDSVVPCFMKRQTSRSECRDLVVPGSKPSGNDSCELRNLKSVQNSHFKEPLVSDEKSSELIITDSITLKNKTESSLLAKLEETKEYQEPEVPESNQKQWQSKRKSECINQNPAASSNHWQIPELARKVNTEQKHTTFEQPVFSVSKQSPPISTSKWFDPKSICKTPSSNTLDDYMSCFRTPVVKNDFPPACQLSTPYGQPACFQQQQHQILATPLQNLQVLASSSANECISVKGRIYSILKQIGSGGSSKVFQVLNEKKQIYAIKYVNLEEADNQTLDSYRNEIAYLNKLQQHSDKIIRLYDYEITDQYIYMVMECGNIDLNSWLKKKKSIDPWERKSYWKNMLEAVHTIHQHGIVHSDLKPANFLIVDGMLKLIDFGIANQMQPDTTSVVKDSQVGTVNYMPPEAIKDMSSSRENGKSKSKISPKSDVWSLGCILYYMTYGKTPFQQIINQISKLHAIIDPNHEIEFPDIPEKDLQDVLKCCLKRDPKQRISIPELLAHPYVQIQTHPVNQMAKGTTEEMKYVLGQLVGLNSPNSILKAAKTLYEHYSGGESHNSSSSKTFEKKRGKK

Take `CCc1ccccc1NC(=O)c1c(C)nsc1Nc1nc(C)nc2ccccc12` [Example 35, N-(2-Ethylphenyl)-3-methyl-5-[(2-methylquinazolin-4-yl)amino]-1,2-thiazole-4-carboxamide]: the results for the IC50 (in experiment [1]; on human kinase Mps-1) were 0.26 µM and greater than 20 µM, respectively.

For the molecule `Cc1nsc(Nc2cc(C#N)ccn2)c1C(=O)Nc1ccc(F)c(F)c1` [Example 27, 5-[(4-Cyanopyridin-2-yl)amino]-N-(3,4-difluorophenyl)-3-methyl-1,2-thiazole-4-carboxamide], the IC50 is 0.11 µM in experiment [1] and greater than 20 µM at human kinase Mps-1.

As for `CCc1ccccc1NC(=O)c1c(C)nsc1Nc1nc2ccccc2s1` [Example 14, 5-(1,3-Benzothiazol-2-ylamino)-N-(2-ethylphenyl)-3-methyl-1,2-thiazole-4-carboxamide], the IC50 in experiment [1] is 0.35 µM; at human kinase Mps-1, greater than 20 µM.

For the molecule `Cc1nsc(Nc2cnc3ccccc3n2)c1C(=O)Nc1ccc(F)c(F)c1` [Example 50, N-(3,4-Difluorophenyl)-3-methyl-5-(quinoxalin-2-ylamino)-1,2-thiazole-4-carboxamide], the IC50 in experiment [1] is 0.056 µM; at human kinase Mps-1 it was greater than 20 µM.

For the molecule `CCc1ccccc1NC(=O)c1c(C)nsc1Nc1cnc2ccccc2n1` [Example 19, N-(2-Ethylphenyl)-3-methyl-5-(quinoxalin-2-ylamino)-1,2-thiazole-4-carboxamide], the IC50 was 0.051 µM in experiment [1] and greater than 20 µM at human kinase Mps-1.

On to `CCc1ccccc1NC(=O)c1c(C)nsc1Nc1ncccc1C#N` [Example 8, 5-[(3-Cyanopyridin-2-yl)amino]-N-(2-ethylphenyl)-3-methyl-1,2-thiazole-4-carboxamide], for which the IC50 in experiment [1] was 4.1 µM; on human kinase Mps-1, greater than 20 µM.

With `CCc1ccccc1NC(=O)c1c(C)nsc1Nc1cnc2ccc(Cl)cc2n1` [Example 41, 5-[(7-Chloroquinoxalin-2-yl)amino]-N-(2-ethylphenyl)-3-methyl-1,2-thiazole-4-carboxamide], the IC50 in experiment [1] is 0.16 µM; on human kinase Mps-1, greater than 20 µM.

Take `CCOC(=O)c1sc(Nc2snc(C)c2C(=O)Nc2ccccc2CC)nc1C` [Example 26, Ethyl 2-({4-[(2-ethylphenyl)carbamoyl]-3-methyl-1,2-thiazol-5-yl}amino)-4-methyl-1,3-thiazole-5-carboxylate]: the IC50 was 0.14 µM in experiment [1] and greater than 20 µM on human kinase Mps-1.

For `CCc1ccccc1NC(=O)c1c(C)nsc1Nc1nc2ccccc2nc1C` [Example 21, N-(2-Ethylphenyl)-3-methyl-5-[(3-methylquinoxalin-2-yl)amino]-1,2-thiazole-4-carboxamide], the results for the IC50 (in experiment [1]; on human kinase Mps-1) were 0.28 µM and greater than 20 µM, respectively.

Regarding `CNC(=O)c1ccnc(Nc2snc(C)c2C(=O)Nc2ccc(F)c(F)c2)c1` [Example 108, 2-({4-[(3,4-Difluorophenyl)-carbamoyl]-3-methyl-1,2-thiazol-5-yl}amino)-N-methyliso-nicotinamide], the IC50 is 1.8 µM in experiment [1] and greater than 20 µM on human kinase Mps-1.

With `Cc1nsc(Nc2cnc3ccccc3n2)c1C(=O)Nc1ccc(Oc2ccc(F)cc2F)nc1` [Example 113, N-[6-(2,4-Difluorophenoxy)pyridin-3-yl]-3-methyl-5-(quinoxalin-2-ylamino)-1,2-thiazole-4-carboxamide], the IC50 in experiment [1] is 0.47 µM; on human kinase Mps-1 it was greater than 20 µM.

As to `COC(=O)c1cncc(Nc2snc(C)c2C(=O)Nc2ccc(OC)nc2)n1` [Example 101, Methyl 6-({4-[(6-methoxypyridin-3-yl)carbamoyl]-3-methyl-1,2-thiazol-5-yl}amino)pyrazine-2-carboxylate], the IC50 was 1.8 µM in experiment [1] and greater than 20 µM on human kinase Mps-1.

On to `COc1ncc(NC(=O)c2c(C)nsc2Nc2cnc3ccccc3n2)cc1C` [Example 121, N-(6-Methoxy-5-methylpyridin-3-yl)-3-methyl-5-(quinoxalin-2-ylamino)-1,2-thiazole-4-carboxamide], for which the IC50 was 0.13 µM in experiment [1] and greater than 20 µM at human kinase Mps-1.

As to `CCOc1ccc(NC(=O)c2c(C)nsc2Nc2cnc3ccccc3n2)cn1` [Example 119, N-(6-Ethoxypyridin-3-yl)-3-methyl-5-(quinoxalin-2-ylamino)-1,2-thiazole-4-carboxamide], the IC50 in experiment [1] is 0.088 µM; at human kinase Mps-1, greater than 20 µM.

As for `Cc1nsc(Nc2nc3c(C(F)(F)F)cccc3s2)c1C(=O)Nc1ccc(Cl)c(Cl)c1` [Example 102, N-(3,4-Dichlorophenyl)-3-methyl-5-{[4-(trifluoromethyl)-1,3-benzothiazol-2-yl]amino}-1,2-thiazole-4-carboxamide], the IC50 in experiment [1] was 0.22 µM; on human kinase Mps-1, greater than 20 µM.

In the case of `COC(=O)c1ccc(Nc2snc(C)c2C(=O)Nc2ccc(OC)nc2)nc1` [Example 31, Methyl 6-({4-[(6-methoxypyridin-3-yl)carbamoyl]-3-methyl-1,2-thiazol-5-yl}amino)-nicotinate], the IC50 in experiment [1] was 5.5 µM; at human kinase Mps-1 it was greater than 20 µM.

On to `Cc1nsc(Nc2ccn3nccc3n2)c1C(=O)Nc1ccc(F)c(F)c1` [Example 57, N-(3,4-Difluorophenyl)-3-methyl-5-(pyrazolo[1,5-a]pyrimidin-5-ylamino)-1,2-thiazole-4-carboxamide], for which the IC50 in experiment [1] was determined as 0.52 µM; on human kinase Mps-1, 18 µM.

`COc1ccc(NC(=O)c2c(C)nsc2Nc2nc3c(C(F)(F)F)cccc3s2)cc1F` [Example 47, N-(3-Fluoro-4-methoxyphenyl)-3-methyl-5-{[4-(trifluoromethyl)-1,3-benzothiazol-2-yl]amino}-1,2-thiazole-4-carboxamide]: the results for the IC50 (in experiment [1]; at human kinase Mps-1) were 0.092 µM and greater than 20 µM, respectively.

In the case of `CCc1ccccc1NC(=O)c1c(C)nsc1Nc1nccc(OC)n1` [Example 16, N-(2-Ethylphenyl)-5-[(4-methoxypyrimidin-2-yl)amino]-3-methyl-1,2-thiazole-4-carboxamide], the values for the IC50 (in experiment [1]; on human kinase Mps-1) were 9.8 µM and greater than 20 µM, respectively.

As for `CCc1ccccc1NC(=O)c1c(C)nsc1Nc1nc2ccccc2o1` [Example 11, 5-(1,3-Benzoxazol-2-ylamino)-N-(2-ethylphenyl)-3-methyl-1,2-thiazole-4-carboxamide], the IC50 in experiment [1] is 1.8 µM; at human kinase Mps-1, greater than 20 µM.

Regarding `Cc1nsc(Nc2cnc3ccccc3n2)c1C(=O)Nc1ccc(OC(C)C)nc1` [Example 122, N-(6-Isopropoxypyridin-3-yl)-3-methyl-5-(quinoxalin-2-ylamino)-1,2-thiazole-4-carboxamide], the IC50 in experiment [1] was 0.059 µM; on human kinase Mps-1, greater than 20 µM.

Turning to `COc1ccc(NC(=O)c2c(C)nsc2Nc2cnc3cccc(C)c3n2)cn1` [Example 22, N-(6-methoxypyridin-3-yl)-3-methyl-5-[(8-methylquinoxalin-2-yl)amino]-1,2-thiazole-4-carboxamide], the figures for the IC50 (in experiment [1]; at human kinase Mps-1) were 0.21 µM and greater than 20 µM, respectively.

With `Cc1nsc(Nc2cc(C#N)ccn2)c1C(=O)Nc1ccc(Cl)c(F)c1` [Example 54, N-(4-Chloro-3-fluorophenyl)-5-[(4-cyanopyridin-2-yl)amino]-3-methyl-1,2-thiazole-4-carboxamide], the IC50 is 0.019 µM in experiment [1] and greater than 20 µM at human kinase Mps-1.

As for `Cc1nsc(Nc2ccc(C#N)cn2)c1C(=O)Nc1ccc(Cl)c(F)c1` [Example 52, N-(4-Chloro-3-fluorophenyl)-5-[(5-cyanopyridin-2-yl)amino]-3-methyl-1,2-thiazole-4-carboxamide], the IC50 in experiment [1] was 0.034 µM; on human kinase Mps-1 it was greater than 20 µM.

`CCc1ccccc1NC(=O)c1c(C)nsc1Nc1ccc(C#N)cn1` [Example 7, 5-[(5-Cyanopyridin-2-yl)amino]-N-(2-ethylphenyl)-3-methyl-1,2-thiazole-4-carboxamide]: the IC50 in experiment [1] is 0.83 µM; at human kinase Mps-1, greater than 20 µM.

Take `CCc1ccccc1NC(=O)c1c(C)nsc1Nc1cc(-n2ccnc2)ncn1` [Example 9, N-(2-Ethylphenyl)-5-{[6-(1H-imidazol-1-yl)pyrimidin-4-yl]amino}-3-methyl-1,2-thiazole-4-carboxamide]: the IC50 in experiment [1] was 1.3 µM; at human kinase Mps-1, greater than 20 µM.

For `Cc1nsc(Nc2nc3c(C(F)(F)F)cccc3s2)c1C(=O)Nc1ccc(Cl)c(F)c1` [Example 53, N-(4-Chloro-3-fluorophenyl)-3-methyl-5-{[4-(trifluoromethyl)-1,3-benzothiazol-2-yl]amino}-1,2-thiazole-4-carboxamide], the IC50 in experiment [1] is 0.34 µM; on human kinase Mps-1, greater than 20 µM.
